Experimental data from patent US20210395327A1, “Growth Hormone-Releasing Hormone Antagonists and Uses Thereof” (United States Government As Represented By The Department …, priority 2019, published 2021).
Like-named read-outs stand apart in the source and are kept apart here. Non-standard residues stand in square brackets, D forms with d. Residues, ends and D or L forms follow the SMILES beside them. *: point of attachment. Phenylacetyl(2,3,4,5,6-F5) = O=C(Cc1c(F)c(F)c(F)c(F)c1F)*; Phe(F5) = N[C@@H](Cc1c(F)c(F)c(F)c(F)c1F)C(=O)O; Phe(4-Cl) = N[C@@H](Cc1ccc(Cl)cc1)C(=O)O; hArg = N=C(N)NCCCC[C@H](N)C(=O)O; 12Ado = NCCCCCCCCCCCC(=O)O; Nle = CCCC[C@H](N)C(=O)O; Orn = NCCC[C@H](N)C(=O)O; Abu = CC[C@H](N)C(=O)O; PhAc = O=C(Cc1ccccc1)*

Columns and labels:
[1] = system: KATOIII stomach cancer cells; assay: In vitro cell viability, KATOIII; assay type: cell-based, human; details: antagonist 5 μM for 72 h, cell proliferation assay; MIA602 = 1
Experimental: (§1) The inhibitory effects of the various synthesized GHRH antagonists were tested in cell proliferation assays in various human cancer cell lines including stomach cancer (KATOIII, N87), colon cancer (HT-29), urothelial cancer (J82, RT4), pancreatic cancer (PANC-1, CFPAC-1), prostatic cancer (PC3), breast cancer (MX-1, HCC1806), ovarian cancer (SK-OV-3, OVCAR-3) and lung cancer (HCC827, H460).
(§2) Cell culture. Human cancer cell lines including pancreatic (PANC-1 and CFPAC-1), lung (HCC827 and H460), stomach (NCI-N87 and KATOIII), urothelial (J82, RT4), prostatic (PC3), breast (MX-1 and HCC 1806), colorectal (HT-29), and ovarian (SK-OV-3 and OVCAR-3) were obtained from the American Type Culture Collection (ATCC) and cultured at 37° C. in a humidified 95% air/5% CO2 atmosphere in the medium recommended by ATCC.
(§3) In vitro cell viability. Cell viability was analyzed as follows: cancer cells including pancreatic (PANC-1 and CFPAC-1), lung (HCC827 and H460), stomach (NCI-N87 and KATOIII), urothelial (J82, RT4), prostatic (PC3) and breast (MX-1 and HCC 1806), colorectal (HT-29) and ovarian (SK-OV-3 and OVCAR-3) were grown on 96 well plates to ˜60% confluence, the cells were starved for 24 h in culture medium containing 0.5% FBS. Cells were then treated with GHRH antagonists MIA602 AVR compounds at concentrations of 1, 2.5 or 5 μM, or vehicle (0.1% DMSO) in quintuplicates for 72 hours. The medium was replaced every 48 hours. Cell viability was measured using CellTiter 96 aqueous one solution kit (Promega). Inhibitory effects of tested AVR compounds in comparison to that of MIA602 are presented as inhibitory potency.
(§4) Inhibitory effects of selected AVR compounds in comparison to that of MIA602 are presented as inhibitory potency (e.g., percentage of inhibition). […] The cell lines tested including lung cancer HCC827 (FIG. 2A), pancreatic cancer CFPAC-1 (FIG. 2B), stomach cancer N87 (FIG. 2C), colon cancer HT-29 (FIG. 2D), breast cancers MX-1 and HCC1806 (FIGS. 2 E, F). Based on the results of cell proliferation assay after cancer cells were treated with antagonist at concentration of 5 μM for 72H, the relative inhibitory potency of AVR antagonists in comparison to MIA-602 is summarized in Table 3 A and B. Over 60 AVR compounds were tested in 12 cancer cell lines.

[2] = system: HCC827 lung cancer cells; assay: In vitro cell viability, HCC827; assay type: cell-based, human; details: antagonist 5 μM for 72 h, cell proliferation assay; MIA602 = 1
Experimental: as §1, §2, §3, §4
(§5) Based on the results of cell proliferation assay after cancer cells were treated with antagonist at concentration of 5 µM for 72H, * at concentration of 2 µM for 72 H.

[3] = system: CFPAC-1 pancreatic cancer cells; assay: In vitro cell viability, CFPAC-1; assay type: cell-based, human; details: antagonist 5 μM for 72 h, cell proliferation assay; MIA602 = 1
Experimental: as §1, §2, §3, §4, §5

[4] = target: T1, membrane GHRH-receptors on human anterior pituitary cells (Homo sapiens, UniProt Q02643); assay: Receptor binding, displacement of 125I-[His1,Nle27]-hGH-RH(1-32)NH2 on human pituitary membranes
T1 construct: Human pituitary was purchased from the National Hormone and Peptide Program; tissue National Hormone and Peptide Program; host or cells: human pituitary (membrane fractions)
T1 sequence (Q02643 23-423): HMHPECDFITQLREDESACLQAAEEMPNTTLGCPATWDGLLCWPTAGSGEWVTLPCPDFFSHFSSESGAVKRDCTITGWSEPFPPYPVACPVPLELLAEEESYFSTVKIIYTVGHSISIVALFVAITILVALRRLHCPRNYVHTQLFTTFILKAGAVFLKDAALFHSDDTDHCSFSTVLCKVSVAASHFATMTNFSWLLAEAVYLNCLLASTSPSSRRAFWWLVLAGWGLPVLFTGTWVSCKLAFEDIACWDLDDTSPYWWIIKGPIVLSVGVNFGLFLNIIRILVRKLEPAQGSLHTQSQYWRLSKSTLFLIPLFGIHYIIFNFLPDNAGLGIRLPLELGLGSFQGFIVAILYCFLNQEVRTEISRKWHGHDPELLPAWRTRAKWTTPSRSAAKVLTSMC
Experimental: Receptor binding affinities in vitro. Preparation of human pituitary membrane fractions and receptor binding of analogs of GH-RH were performed (Halmos G, Rekasi Z, Szoke B, Schally A V. (1993) Receptor 3:87-97). Human pituitary was purchased from the National Hormone and Peptide Program. […] Relative affinities compared to hGH-RH(1-29)NH2 were calculated as the ratio of IC50 (dose causing 50% inhibition of specific binding to receptors) of the tested peptides to the IC50 of hGH-RH(1-29)NH2. The values were calculated from technical duplicate tubes.
Nineteen new AVR analogs of GHRH were tested in the receptor binding assay. Table 6 presents the IC50 values of GHRH antagonists to membrane GHRH-receptors binding on human anterior pituitary cells.

[5] = system: NCI-N87 stomach cancer cells; assay: In vitro cell viability (CellTiter 96), N87; assay type: cell-based, human; details: antagonist 5 μM for 72 h, cell proliferation assay; MIA602 = 1
Experimental: as §1, §2, §3, §4, §5

[6] = system: PANC-1 pancreatic cancer cells; assay: In vitro cell viability, PANC-1; assay type: cell-based, human; details: antagonist 5 μM for 72 h, cell proliferation assay; MIA602 = 1
Experimental: as §1, §2, §3, §4

[7] = system: J82 urothelial cancer cells; assay: In vitro cell viability, J82; assay type: cell-based, human; details: antagonist 5 μM for 72 h, cell proliferation assay; MIA602 = 1
Experimental: as §1, §2, §3, §4

Row | IC50 ([4]; membrane receptors on human anterior pituitary cells, mean of two to three determinations, read-out: IC50) [nM] | SMILES | relative inhibitory potency in comparison to MIA-602, Stomach KATOIII [1] | relative inhibitory potency in comparison to MIA-602, Lung IICC827 [2] | relative inhibitory potency in comparison to MIA-602, Pancreatic CFPAC-1 [3] | relative inhibitory potency in comparison to MIA-602, Stomach N87 [5] | relative inhibitory potency in comparison to MIA-602, Pancreatic Panc-1 [6] | relative inhibitory potency in comparison to MIA-602, Urothelial J82 [7] | IC50 [4] [nM]
1 | 0.31 | CCCC[C@H](NC(=O)[C@@H](NC(=O)[C@H](CC(=O)O)NC(=O)[C@H](CCC(N)=O)NC(=O)[C@H](CC(C)C)NC(=O)[C@H](CC(C)C)NC(=O)[C@H](CCCN)NC(=O)[C@H](Cc1c[nH]cn1)NC(=O)[C@H](C)NC(=O)[C@H](CO)NC(=O)[C@H](CC(C)C)NC(=O)[C@H](CCC(N)=O)NC(=O)[C@H](CC)NC(=O)[C@H](CC(C)C)NC(=O)[C@@H](NC(=O)[C@H](CCCCN)NC(=O)[C@H](CCCNC(=N)N)NC(=O)[C@H](Cc1ccc(OC)cc1)NC(=O)[C@H](CCCNC(=N)N)NC(=O)[C@H](CC(N)=O)NC(=O)[C@@H](NC(=O)[C@H](Cc1ccc(Cl)cc1)NC(=O)[C@@H](NC(=O)[C@H](C)NC(=O)[C@H](CC(=O)O)NC(=O)[C@@H](CCCNC(=N)N)NC(=O)[C@H](Cc1ccc(O)cc1)NC(=O)CCCCCCCCCCCNC(=O)Cc1c(F)c(F)c(F)c(F)c1F)[C@@H](C)CC)[C@@H](C)O)C(C)C)[C@@H](C)CC)C(=O)N[C@H](CCCNC(=N)N)C(=O)N[C@@H](CCCCNC(=N)N)C(=O)NCCCCCCCCCCCC(N)=O [AVR-620, 5FPhAC-Ada-Tyr-DArg-Asp-Ala-Ile-Cpa-Thr-Asn-Arg-Tyr(Me)-Arg-Lys-Val-Leu-Abu-Gln-Leu-Ser-Ala-His-Orn-Leu-Leu-Gln-Asp-Ile-Nle-DArg-Har-Ada-NH2] ({Phenylacetyl(2,3,4,5,6-F5)-12Ado}-Y[dR]DAI[Phe(4-Cl)]TNRY(Me)RKVL[Abu]QLSAH[Orn]LLQDI[Nle][dR][hArg][12Ado]-NH2) | 1.769 | 3.753 | 1.567 |  |  |  | 
2 |  | CCCC[C@H](NC(=O)[C@@H](NC(=O)[C@H](CC(=O)O)NC(=O)[C@H](CCC(N)=O)NC(=O)[C@H](CC(C)C)NC(=O)[C@H](CC(C)C)NC(=O)[C@H](CCCN)NC(=O)[C@H](Cc1c[nH]cn1)NC(=O)[C@H](C)NC(=O)[C@H](CO)NC(=O)[C@H](CC(C)C)NC(=O)[C@H](CCC(N)=O)NC(=O)[C@H](CC)NC(=O)[C@H](CC(C)C)NC(=O)[C@@H](NC(=O)[C@H](CCCCN)NC(=O)[C@H](CCCNC(=N)N)NC(=O)[C@H](Cc1c(F)c(F)c(F)c(F)c1F)NC(=O)[C@H](CCCNC(=N)N)NC(=O)[C@H](C)NC(=O)[C@@H](NC(=O)[C@H](Cc1ccc(Cl)cc1)NC(=O)[C@@H](NC(=O)[C@H](C)NC(=O)[C@H](CC(=O)O)NC(=O)[C@@H](CCCNC(=N)N)NC(=O)[C@H](Cc1ccc(O)cc1)NC(=O)CCCCCCCCCCCNC(=O)Cc1ccccc1)[C@@H](C)CC)[C@@H](C)O)C(C)C)[C@@H](C)CC)C(=O)N[C@H](CCCNC(=N)N)C(=O)N[C@@H](CCCCNC(=N)N)C(N)=O [AVR-116, PhAC-Ada-Tyr-DArg-Asp-Ala-Ile-Cpa-Thr-Ala-Arg-5FPhe-Arg-Lys-Val-Leu-Abu-Gln-Leu-Ser-Ala-His-Orn-Leu-Leu-Gln-Asp-Ile-Nle-DArg-Har-NH2] ({PhAc-12Ado}-Y[dR]DAI[Phe(4-Cl)]TAR[Phe(F5)]RKVL[Abu]QLSAH[Orn]LLQDI[Nle][dR][hArg]-NH2) | 1.202 | 2.470 | 1.445 | 2.484 | 1.208 | 3.034 | 0.5
